Reference: US20220098674A1, “METHODS AND COMPOSITIONS FOR SELECTING A CANCER TREATMENT IN A SUBJECT SUFFERING FROM CANCER” (INSERM (INSTITUT NATIONAL DE LA SANTÉ ET DR LA RECHERCH …, priority 2019, published 2022)

Key:
RCC4 siVDAC1 cells = test: Invasion assay (aggressiveness) of RCC4 siVDAC1 cells treated with 3BP; format: cell-based
Method: The invasion assay was performed using cell culture inserts with 8.0 μm pore transparent PET membrane coated with 10 μg/mL fibronectin. Inserts were coated with 2 μg/μL of Matrigel and incubated for 3 h at 37° C. in a CO2 incubator. Briefly, overnight serum-starved cells (8×10^4 cells) were seeded into the top chamber in medium without FBS, while medium with 10% FBS was present in the bottom chamber. The cells were incubated for 24 h. Media and remaining cells were removed from the top chamber with a cotton swab and washed twice with PBS. The bottom chamber was aspirated and washed twice with PBS. Inserts were fixed with 4% PFA. Invasiveness was assayed in triplicate for each condition, in at least three independent experiments. Cells that invaded the Matrigel and migrated through the filter and adhered to the lower surface were stained for 10 min with 0.5% crystal violet in 25% methanol. Inserts were rinsed in distilled water until no additional stain leached and were air-dried overnight. Crystal violet was extracted from the invading cells by adding 600 μl of 0.1M sodium citrate in 10% acetic acid. Absorbance was measured spectrophotometrically at 585 nm using Spectronic GENESYS 5 (Milton Roy, Rochester, N.Y.). Microarray experiments Microarray experiments were already described (22). […]

[1] = system: RCC4+pVHL, RCC4 and RCC4 siVDAC1 cells; test: Sensitivity of RCC4 cell variants to sunitinib or 3BP treatment; format: cell-based
Method: RCC4/pVHL and 786-O/pVHL cells were grown in Dulbecco's Modified Eagle's Medium (DMEM) (Gibco-BRL) supplemented with 10% fetal bovine serum with penicillin G (50 U/ml) and streptomycin sulfate (50 μg/ml). ACHN and A498 RCC cell lines were purchased from the ATCC (Mar. 3, 2013). The RCC10 cell line was a kind gift from Dr. W. H. Kaelin (Dana-Farber Cancer Institute, Boston, Mass.). An INVIVO2 200 anaerobic workstation (Ruskinn Technology Biotrace International Plc) set at 1% oxygen, 94% nitrogen and 5% carbon dioxide was used for hypoxic conditions.
Cells (5000-10000) were plated on 60 mm dishes and incubated at 37° C., 5% CO2 for colony formation. After 10 days, colonies were fixed with 10% (v/v) methanol for 15 min and stained with 5% Giemsa (Sigma) for 30 min for colony visualization.
Sunitinib, a vascular endothelial growth factor receptor inhibitor is widely used for patients with metastatic RCC. RCC4+pVHL−, RCC4− and RCC4 siVDAC1− cells were treated with 1.0 and 1.5 μM of sunitinib (Data not shown). […] As RCC4 cells with VDAC1-ΔC present a higher glycolysis than RCC4+pVHL cells, we used 3 Bromopyruvate (3BP), an halogenated analogue of pyruvic acid that enters cells like a lactate via monocarboxylic acid transporters, to block glycolysis.

RCC4 cells = test: Cell death in RCC4 cells, siRNA to VDAC1 or AEP combined with 3BP; format: cell-based; settings: 3BP combined with siRNA to VDAC1 or AEP
Excerpt: In patients who progressively lose the primary cilium, this loss generated increased metabolism and greater resistance to cell death, promoting tumor growth. Since this loss was related to the presence of the cleaved form of VDAC1, the strategy would therefore be to prevent the cleavage of VDAC1 to restore the presence of the primary cilium. […] Indeed, we characterized a signature related to EMT that can explain the aggressive phenotype of the tumors of these patients. However, remodeling of metabolism was changed. Although cancer metabolism is a hallmark of cancer, it has been shown that aberrant metabolism supports EMT (47,48). […] It is therefore possible to envisage specific treatment for these groups: Temsirolimus (50) or Everolimus, specific inhibitors of mTOR (51) that block proliferation, in combination with small molecule inhibitors that prevent EMT such as EW-7197 or IN-1130, through a block in TGFβ1 and 2, have already been used in metastatic breast and lung cancer (52). By maintaining only one metabolic pathway, cancer cells with a GLI1+/IFT20+ signature offer a metabolic vulnerability that it would be wise to exploit. […] Finally, combination of an immune checkpoint inhibitor such as atezolizumab or nivolumab (an anti-PDL1 or PD1 inhibitor) alone or plus 3-bromopyruvate could be evaluated on PC+ patients with such reduced overall survival (FIG. 1). […]

ccRCC = test: Survival (PFS, OS) of sunitinib-treated ccRCC patients by GLI1/IFT20 primary cilium signature, clinical trial SUVEGIL; format: in vivo, human; settings: ccRCC patients treated with sunitinib, no VDAC1-ΔC
Method: FIG. 3. Patients with primary cilium signature present a higher immunogenicity compared to no primary cilium signature and a better response to immunotherapy. (A) Progression free-survival (PFS) and (B) Overall survival (OS) for the primary cilium signature was calculated from patients of the TCGA cohort C treated with sunitinib using the GLI1/IFT20 signature. Statistical significance (p-value) is indicated. The median survival is also indicated.
The Student's t-test was used to compare continuous variables and chi-square test, or Fisher's exact test (when the conditions for use of the χ2-test were not fulfilled), were used for categorical variables. To guarantee the independence of primary cilium as a prognostic factor, the multivariate analysis was performed using Cox regression adjusted to the stage and age. DFS was defined as the time from surgery to the appearance of metastasis. OS was defined as the time between surgery and the date of death from any cause, censoring those alive at last follow-up. The Kaplan-Meier method was used to produce survival curves and analyses of censored data were performed using Cox models. All analyses were performed using R software, version 3.2.2 (Vienna, Austria, https://www.r-project.org/).
We thus checked if PC+ patients with a GLI1+/IFT20+ signature and no VDAC1-ΔC are resistant or sensitive to sunitinib.

Row | Compound | aggressiveness (invasion) compared to control (RCC4 siVDAC1 cells) | sensitivity to 3BP ([1]; cells presenting no VDAC1-ΔC or less VDAC1, 10 and 25 μM) | cell death (RCC4 cells) | survival (PFS and OS) of PC+ patients versus PC− groups (ccRCC) | sensitivity to sunitinib ([1]; RCC4+pVHL, RCC4 and RCC4 siVDAC1 cells (all these cells), 1.0 and 1.5 μM) | sensitivity to sunitinib ([1]; RCC4 cells expressing no VDAC1-ΔC) | sensitivity to sunitinib, relative ([1]; cells with VDAC1-ΔC versus RCC4+pVHL cells or cells with no VDAC1-ΔC or less VDAC1, 1.0 and 1.5 μM)
1 | O=C(O)C(=O)CBr [3BP, 3-bromopyruvate] | strongly decreased | highly sensitive | increased cell death | – | – | – | –
2 | CCN(CC)CCNC(=O)c1c(C)[nH]c(/C=C2\C(=O)Nc3ccc(F)cc32)c1C [sunitinib, N-[2-(diethylamino)ethyl]-5-{[(3Z)-5-fluoro-2-oxo-2,3-dihydro-1H-indol-3-ylidene]methyl}-2,4-dimethyl-1H-pyrrole-3-carboxamide] | – | – | – | lower survival | sensitive | less sensitive | slightly more sensitive
